Drawing on patent US9908850B2, “Salt forms of [R—(R*,R*)]-2-(4-fluorophenyl)-β,δ-dihydroxy-5-(1-methylethyl)3-phenyl-4-[(phenylamino)carbonyl]-1H-pyrrole-1-hepatonic acid” (Pfizer Inc., priority 2004, dated 2018), this text covers hygroscopicity for six compounds.

The series can be described thus: hygroscopicity of the salt forms. The class given is physicochemical. Particulars: solid salt; considered to be non-hygroscopic.
Consider `CC(C)c1c(C(=O)Nc2ccccc2)c(-c2ccccc2)c(-c2ccc(F)cc2)n1CC[C@@H](O)C[C@@H](O)CC(=O)O.c1ccc(CCNCc2ccccc2)cc1` (relative stereo) [benethamine, [R—(R*,R*)]-2-(4-Fluorophenyl)-β,δ-dihydroxy-5-(1-methylethyl)-3-phenyl-4-[(phenylamino)carbonyl]-1H-pyrrole-1-heptanoic acid, N-benzyl-2-phenylethylamine], for which the hygroscopicity entry was “non-hygroscopic”.

“[R—(R*,R*)]-2-(4-Fluorophenyl)-β,δ-dihydroxy-5-(1-methylethyl)-3-phenyl-4-[(phenylamino)carbonyl]-1H-pyrrole-1-heptanoic acid, tetrahydro-2H-1,4-oxazine [morpholine]”: the hygroscopicity entry is given as “non-hygroscopic”. For `CC(C)c1c(C(=O)Nc2ccccc2)c(-c2ccccc2)c(-c2ccc(F)cc2)n1CC[C@@H](O)C[C@@H](O)CC(=O)O.c1ccc(CNCCNCc2ccccc2)cc1` (relative stereo) [benzathine, [R—(R*,R*)]-2-(4-Fluorophenyl)-β,δ-dihydroxy-5-(1-methylethyl)-3-phenyl-4-[(phenylamino)carbonyl]-1H-pyrrole-1-heptanoic acid,N,N^1-bis(phenylmethyl)-1,2-ethanediamine] the value was “non-hygroscopic”. As to “[R—(R*,R*)]-2-(4-Fluorophenyl)-β,δ-dihydroxy-5-(1-methylethyl)-3-phenyl-4-[(phenylamino)carbonyl]-1H-pyrrole-1-heptanoic acid,N-ethylethanamine [diethylamine]”, the hygroscopicity entry is given as “non-hygroscopic”.

On to “[R—(R*,R*)]-2-(4-Fluorophenyl)-β,δ-dihydroxy-5-(1-methylethyl)-3-phenyl-4-[(phenylamino)carbonyl]-1H-pyrrole-1-heptanoic acid, tertiary-butylamine [erbumine]”, for which the hygroscopicity entry was “non-hygroscopic”. As to “[R—(R*,R*)]-2-(4-Fluorophenyl)-β,δ-dihydroxy-5-(1-methylethyl)-3-phenyl-4-[(phenylamino)carbonyl]-1H-pyrrole-1-heptanoic acid,N-(phenylmethyl)benzenemethanamine [dibenzylamine]”, the hygroscopicity result is listed as “non-hygroscopic”.
